Patent US20050197350A1, “Novel quinoline, tetrahydroquinazoline, and pyrimidine derivatives and methods of treatment related to the use thereof” (TAISHO PHARMACEUTICAL CO., LTD., priority 2003, published 2005)

The compounds below were run on MCH receptors (assay: MCH receptor activity class (method not given)). Conditions: not given.

class	SMILES
1	COc1cc(C(=O)N[C@H]2CC[C@@H](Nc3cc(C)c4ccccc4n3)CC2)cc(OC)c1OC [Example 2552, 3,4,5-trimethoxy-N-{cis-4-[(4-methylquinolin-2-yl)amino]cyclohexyl}benzamide]

Same assay, conditions: MCH receptor activity class 1-3 (percent of control at 10^-7 M or IC50)

SMILES	class
COc1ccc(C)cc1NC(=O)NC[C@H]1CC[C@@H](Nc2cc(N(C)C)c3ccccc3n2)CC1 [compound 2400]	3 (Class 3 The value of percent of control at 10^−7 M was more than 60% or the value of IC50 was more than 200 nM.)

Same assay, conditions: MCH receptor; class by percent of control at 10^-7 M or IC50

SMILES	class
CN(C)c1nc(N[C@H]2CC[C@@H](NC(=S)Nc3ccc([N+](=O)[O-])cc3Cl)CC2)nc2c1CCCC2 [compound 1975]	3 (Class 3 The value of percent of control at 10^−7 M was more than 60% or the value of IC50 was more than 200 nM.)
COc1ccc(NC(=S)N[C@H]2CC[C@@H](Nc3nc4c(c(N(C)C)n3)CCCC4)CC2)c([N+](=O)[O-])c1 [compound 2017]	3 (Class 3 The value of percent of control at 10^−7 M was more than 60% or the value of IC50 was more than 200 nM.)
CN(C)c1cc(N[C@H]2CC[C@@H](NC(=O)c3ccc(Cl)cc3)CC2)nc2ccccc12 [compound 25]	1 (Class 1: The value of percent of control at 10^−7 M was less than 40% or the value of IC50 was less than 50 nM.)
CN(C)c1nc(N[C@H]2CC[C@@H](NC(=S)Nc3cc(Cl)cc(Cl)c3)CC2)nc2c1CCCC2 [compound 1981]	3 (Class 3 The value of percent of control at 10^−7 M was more than 60% or the value of IC50 was more than 200 nM.)

Same assay, conditions: activity class 1-3: percent of control at 10^-7 M or IC50

SMILES	class
CN(C)c1cc(N[C@H]2CC[C@@H](CNC(=O)OCC(C)(C)C)CC2)nc2ccccc12 [compound 1560]	3 (Class 3 The value of percent of control at 10^−7 M was more than 60% or the value of IC50 was more than 200 nM.)
CN(C)c1cc(N[C@H]2CC[C@@H](CNC(=O)Oc3ccc(Br)cc3)CC2)nc2ccccc12 [compound 1563]	3 (Class 3 The value of percent of control at 10^−7 M was more than 60% or the value of IC50 was more than 200 nM.)
CN(C)c1nc(N[C@H]2CC[C@@H](CNC(=O)Oc3ccccc3)CC2)nc2c1CCCC2 [compound 1612]	3 (Class 3 The value of percent of control at 10^−7 M was more than 60% or the value of IC50 was more than 200 nM.)

Same assay, conditions: activity class per percent of control at 10^-7 M or IC50

SMILES	class
CN(C)c1cc(N[C@H]2CC[C@@H](CNCc3ccc(Cl)cc3)CC2)nc2ccccc12 [compound 1149]	3 (Class 3 The value of percent of control at 10^−7 M was more than 60% or the value of IC50 was more than 200 nM.)

Same assay, conditions: class 1-3 by percent of control at 10^-7 M or IC50

SMILES	class
CN(C)c1ccnc(N[C@H]2CC[C@@H](CNC(=O)/C=C/c3ccccc3Cl)CC2)n1 [compound 452]	2 (Class 2: The value of percent of control at 10^−7 M was from 40% to 60% or the value of IC′50 was from 50 nM to 200 nM.)
CN(C)c1nc(N[C@H]2CC[C@@H](NC(=O)c3cccc(Cl)c3)CC2)nc2c1CCCC2 [compound 460]	1 (Class 1: The value of percent of control at 10^−7 M was less than 40% or the value of IC50 was less than 50 nM.)

Same assay, conditions: class by percent of control at 10^-7 M or IC50

SMILES	class
CC(CCN[C@H]1CC[C@@H](Nc2nccc(N(C)C)n2)CC1)c1ccccc1 (relative stereo) [compound 1226]	3 (Class 3 The value of percent of control at 10^−7 M was more than 60% or the value of IC50 was more than 200 nM.)
COc1cc(C)c(CNC[C@H]2CC[C@@H](Nc3nccc(N(C)C)n3)CC2)cc1C [compound 1316]	2 (Class 2: The value of percent of control at 10^−7 M was from 40% to 60% or the value of IC′50 was from 50 nM to 200 nM.)
CN(C)c1nc(N[C@H]2CC[C@@H](NC(=O)Cc3ccccc3I)CC2)nc2c1CCCC2 [compound 957]	2 (Class 2: The value of percent of control at 10^−7 M was from 40% to 60% or the value of IC′50 was from 50 nM to 200 nM.)
CN(C)c1cc(N[C@H]2CC[C@@H](NC(=O)NCc3ccccc3F)CC2)nc2ccccc12 [compound 2143]	3 (Class 3 The value of percent of control at 10^−7 M was more than 60% or the value of IC50 was more than 200 nM.)
CN(C)c1nc(N[C@H]2CC[C@@H](CNC(=O)Cc3cccs3)CC2)nc2c1CCCC2 [compound 615]	3 (Class 3 The value of percent of control at 10^−7 M was more than 60% or the value of IC50 was more than 200 nM.)
CN(C)c1ccnc(N[C@H]2CC[C@@H](NC(=O)Nc3ccc4c(c3)OCCO4)CC2)n1 [compound 2251]	3 (Class 3 The value of percent of control at 10^−7 M was more than 60% or the value of IC50 was more than 200 nM.)
CN(C)c1ccnc(N[C@H]2CC[C@@H](NC(=O)c3cccc(I)c3)CC2)n1 [compound 276, N-(cis-4-{[4-(dimethylamino)pyrimidin-2-yl]amino}cyclohexyl)-3-iodobenzamide]	1 (Class 1: The value of percent of control at 10^−7 M was less than 40% or the value of IC50 was less than 50 nM.)
Cc1cc(C(=O)N[C@H]2CC[C@@H](Nc3nccc(N(C)C)n3)CC2)c(C(F)(F)F)o1 [compound 288]	3 (Class 3 The value of percent of control at 10^−7 M was more than 60% or the value of IC50 was more than 200 nM.)
COc1ccc(Oc2ccc([N+](=O)[O-])cc2C(=O)N[C@H]2CC[C@@H](Nc3nccc(N(C)C)n3)CC2)cc1 [compound 326, N-(cis-4-{[4-(dimethylamino)pyrimidin-2-yl]amino}cyclohexyl)-2-(4-methoxyphenoxy)-5-nitrobenzamide]	1 (Class 1: The value of percent of control at 10^−7 M was less than 40% or the value of IC50 was less than 50 nM.)
CCOC(=O)[C@H](CC(C)C)NC(=O)N[C@H]1CC[C@@H](Nc2cc(N(C)C)c3ccccc3n2)CC1 (relative stereo) [compound 2093]	3 (Class 3 The value of percent of control at 10^−7 M was more than 60% or the value of IC50 was more than 200 nM.)
COc1cc(NC(=S)N[C@H]2CC[C@@H](Nc3nccc(N(C)C)n3)CC2)cc(OC)c1OC [compound 2265, N-(cis-4-{[4-(dimethylamino)pyrimidin-2-yl]amino}cyclohexyl)-N′-(3,4,5-trimethoxyphenyl)thiourea]	1 (Class 1: The value of percent of control at 10^−7 M was less than 40% or the value of IC50 was less than 50 nM.)
CSc1sc(C(=O)N[C@H]2CC[C@@H](Nc3cc(N(C)C)c4ccccc4n3)CC2)c(Cl)c1S(=O)(=O)C(C)C [compound 765]	3 (Class 3 The value of percent of control at 10^−7 M was more than 60% or the value of IC50 was more than 200 nM.)
CN(C)c1ccnc(N[C@H]2CC[C@@H](NC(=O)COCc3ccccc3)CC2)n1 [compound 313]	3 (Class 3 The value of percent of control at 10^−7 M was more than 60% or the value of IC50 was more than 200 nM.)
CN(C)c1nc(N[C@H]2CC[C@@H](NC(=O)NCc3ccc(Cl)cc3Cl)CC2)nc2c1CCCC2 [compound 1710]	2 (Class 2: The value of percent of control at 10^−7 M was from 40% to 60% or the value of IC′50 was from 50 nM to 200 nM.)
COc1cc(CNC[C@H]2CC[C@@H](Nc3cc(N(C)C)c4ccccc4n3)CC2)cc(Br)c1OC [compound 1189]	3 (Class 3 The value of percent of control at 10^−7 M was more than 60% or the value of IC50 was more than 200 nM.)
CN(C)c1nc(N[C@H]2CC[C@@H](NC(=O)Nc3ccc(I)cc3)CC2)nc2c1CCCC2 [compound 1892]	3 (Class 3 The value of percent of control at 10^−7 M was more than 60% or the value of IC50 was more than 200 nM.)
CN(C)c1ccnc(N[C@H]2CC[C@@H](NC(=O)CCCc3cccs3)CC2)n1 [compound 886]	3 (Class 3 The value of percent of control at 10^−7 M was more than 60% or the value of IC50 was more than 200 nM.)
CN(C)c1cc(N[C@H]2CC[C@@H](CNCc3cc(C(F)(F)F)cc(Cl)c3F)CC2)nc2ccccc12 [compound 1197]	3 (Class 3 The value of percent of control at 10^−7 M was more than 60% or the value of IC50 was more than 200 nM.)
CN(C)c1ccnc(N[C@H]2CC[C@@H](NCc3coc4ccc(Cl)cc4c3=O)CC2)n1 [compound 1234]	3 (Class 3 The value of percent of control at 10^−7 M was more than 60% or the value of IC50 was more than 200 nM.)
CCOc1ccc2ccccc2c1C(=O)N[C@H]1CC[C@@H](Nc2nccc(N(C)C)n2)CC1 [compound 347]	3 (Class 3 The value of percent of control at 10^−7 M was more than 60% or the value of IC50 was more than 200 nM.)
CN(C)c1ccnc(N[C@H]2CC[C@@H](CNCc3cccc(C#N)c3)CC2)n1 [compound 1284]	3 (Class 3 The value of percent of control at 10^−7 M was more than 60% or the value of IC50 was more than 200 nM.)
CN(C)c1cc(N[C@H]2CC[C@@H](NC(=O)Nc3ccccc3Cl)CC2)nc2ccccc12 [compound 2089]	2 (Class 2: The value of percent of control at 10^−7 M was from 40% to 60% or the value of IC′50 was from 50 nM to 200 nM.)
CN(C)c1cc(N[C@H]2CC[C@@H](NC(=O)Cc3ccccc3C(=O)Nc3ccc(Cl)cc3Cl)CC2)nc2ccccc12 [compound 723]	3 (Class 3 The value of percent of control at 10^−7 M was more than 60% or the value of IC50 was more than 200 nM.)

Same assay, conditions: class by percent of control at 10^−7 M or IC50

SMILES	class
COc1cc(CNC(=O)[C@H]2CC[C@@H](Nc3nc(C)cc(N(C)C)n3)CC2)cc(OC)c1 [compound 2811, cis-N-(3,5-dimethoxybenzyl)-4-{[4-(dimethylamino)-6-methylpyrimidin-2-yl]amino}cyclohexanecarboxamide]	1 (Class 1: The value of percent of control at 10^−7 M was less than 40% or the value of IC50 was less than 50 nM.)
Cc1cnc(N[C@H]2CC[C@@H](NC(=O)c3cccnc3Oc3cccc(C(F)(F)F)c3)CC2)nc1N(C)C [compound 2895]	1 (Class 1: The value of percent of control at 10^−7 M was less than 40% or the value of IC50 was less than 50 nM.)
Cc1cc(N(C)C)nc(N[C@H]2CC[C@@H](C(=O)NCc3ccc(Cl)cc3)CC2)n1 [compound 2816, cis-N-(4-chlorobenzyl)-4-{[4-(dimethylamino)-6-methylpyrimidin-2-yl]amino}cyclohexanecarboxamide]	1 (Class 1: The value of percent of control at 10^−7 M was less than 40% or the value of IC50 was less than 50 nM.)
COc1ccc(N(C)CC(=O)N[C@H]2CC[C@@H](Nc3ncc(C)c(N(C)C)n3)CC2)cc1 [compound 2948]	2 (Class 2: The value of percent of control at 10^−7 M was from 40% to 60% or the value of IC′50 was from 50 nM to 200 nM.)
